In series [1] the test system is DENV1 (Den1 BR/90) infection in Huh-7.5. Put plainly: image-based dengue HT/HCA, 10-pt dose-response hit confirmation, DENV1. The settings on record: Dengue virus, DENV1, Huh7.5; Huh-7.5, M.O.I. 0.5, 96 hrs; read-out: EC50 DENV1. The class given is cell-based. As to the method: (§1) An immunofluorescence assay (IFA) used to detect dengue infection was optimized for the dengue HT/HCA. Briefly, cells were fixed with 4% (w/v) paraformaldehyde (PFA) for 20 min at room temperature (Rm T). PFA-fixed cells were treated with 0.25% (v/v) Triton-X for 20 min at Rm T. DENV-infected cells were detected by probing with 4G2 mAb prepared in blocking buffer: DPBS containing 5% FBS for 30 min at 37°C, followed by AlexaFluor-conjugated goat anti-mouse IgG (H+L) (Invitrogen Molecular Probes, USA) prepared in blocking buffer for 30 min at 37°C. Cell nuclei counterstained with 5 µg/mL 4′,6-diamidino-2-phenylindole (DAPI, Sigma-Aldrich, USA). Two washing cycles of DPBS was done after each step of the IFA. After the final washing, digital images were acquired using a high-throughput confocal fluorescence imaging system (Evotec Technologies High-Throughput Cell Analyzer Opera, Perkin Elmer, USA). The digital images were taken from 3 different fields of each well at 20× magnification.
(§2) Acquired images were analyzed using our in-house developed image-mining platform (IM). This platform is designed to do high-content screening and directly access the database of images that were sequentially analyzed with specially designed algorithms developed as a customized plug-in to the IM platform. The results of all the analyses were stored in a centralized database. […] One channel (DAPI-channel) captures the signal emitted by DAPI-stained nuclei at 450 nm, while the other channel (A488-channel) captures the signal emitted by the AlexaFluor 488 dye bound to the dengue E protein-antibody complexes confined in the cytoplasm of dengue-infected cells at 540 nm. To define the percentage of dengue-infected cells and, conversely the non-infected cells, a modified watershed method was applied. Compared to the original watershed algorithm that uses the morphological gradient image, a weighted gradient image is used for the topographic surface, whose weights are defined as the ridge values computed from the eigen values of the original image. The percentage of non-infected cells, which is also defined as the percent inhibition or percent activity, is derived by using the formula: [1−(A488-positive cells/total cells)]×100%.
(§3) The BioFocus kinase inhibitor library were screened against DENV1, DEN2, DENV3 and DENV4 at 10 µM in 0.5% (v/v) DMSO. MOCK-infected Huh-7.5 and IFN-α2A (500 U/mL) were used as positive controls, and the 0.5% DMSO vehicle was used as negative control. Four sets of 15 384-well plates (13 plates designated for test compounds and 2 plates designated for DMSO vehicle control) were used for the primary screening of the BioFocus kinase inhibitor library against each dengue serotype. Each of the 4,000 compounds in the library was tested in single wells. For data normalization and quality control of the screening, each test compound plate contained 16 replicates of the positive and negative controls. After dispensing the test compounds IFN-α2A and DMSO vehicle in the 384-well plates, Huh-7.5 was mixed with DENV1, DENV2, DENV3, or DENV4 to achieve a M.O.I. of 0.5 and dispensed at 5×10^3 cells/well using the Thermo Scientific WellMate automated liquid dispenser. For the MOCK-infected Huh-7.5, the cells were mixed with VM and dispensed under the same conditions as previously stated. Virus infection in the presence of the compounds proceeded at 37°C, 5% CO2 for 96 hrs. Compound activity based on percent inhibition and cell toxicity was assessed by IFA and IM analysis as described above. Scatter-plot distribution of the entire screening was generated using TIBCO Spotfire 4.5.0 (TIBCO Software Inc., Somerville, MA).
(§4) The calculated activity was normalized to a percent inhibition (PI) based on the MOCK-infected cells (100% activity, or zero infection) and dengue-infected cells (0% activity, or maximum measured infection percentage) controls according to the formula: [drawing 1] where: PImeasured - percent inhibition of test compound […]

The subject of series [2] is DENV2 (BR DEN2 01-01) infection in Huh-7.5. Kind of series: image-based dengue HT/HCA, 10-pt dose-response hit confirmation, DENV2. The series is classed as cell-based. The note with it: Dengue virus, DENV2, Huh7.5; Huh-7.5, M.O.I. 0.5, 96 hrs; read-out: EC50 DENV2. The method, then: as §1, §2, §3, §4
Series [3] concerns DENV3 (BR DEN3 290-02) infection in Huh-7.5. Put plainly: image-based dengue HT/HCA, 10-pt dose-response hit confirmation, DENV3. The settings on record: Dengue virus, DENV3, Huh7.5; Huh-7.5, M.O.I. 0.5, 96 hrs; read-out: EC50 DENV3. The series is classed as cell-based. As to the method: as §1, §2, §3, §4
The test system of series [4] is DENV4 (DEN4 TVP-360) infection in Huh-7.5. Kind of series: image-based dengue HT/HCA, 10-pt dose-response hit confirmation, DENV4. The series is classed as cell-based. The settings on record: Dengue virus, DENV4, Huh7.5; Huh-7.5, M.O.I. 0.5, 96 hrs; read-out: EC50 DENV4. As to the method: as §1, §2, §3, §4
The nature of series [5]: compound toxicity, resazurin reduction assay in uninfected Huh-7.5. The class given is cell-based. The settings on record: human, uninfected Huh-7.5 cells, Huh-7.5 without viral infection, 10-pt DRC. The method, then: The hits identified from the primary screening were also tested at 10 µM against CHIKV-118-GFP infection in HuH-7 cells and evaluated by resazurin reduction assay (RRA). Resazurin (7-Hydroxy-3H-phenoxazin-3-one 10-oxide) is reduced to the red fluorescent resorufin by redox enzymes produced by viable cells, and is a good indication of metabolic capacity, and by extension cell viability. The amount of converted resorufin was measured as relative fluorescence readout (RFU) at excitation/emission of 531/572 nm using a fluorescence spectrophotometer (Victor^3 V Spectrophotometer, Perkin Elmer, USA). Briefly, cells were inoculated with CHIKV-118-GFP at an M.O.I. of 0.5 and seeded in 384-well plates containing reference and primary hit compounds and incubated under humidified conditions for 72 hrs at 37°C. Resazurin solution was added to a final concentration of 10 µM and further incubated for another 12 hrs prior to measurement of RFU. The percent activity of the compounds, reflected by the percent cell viability, was quantified by normalizing against the RFUs of MOCK-infected cells and CHIKV-118-GFP-infected cells. Compounds resulting in normalized RFU ≥70% were considered as positive hits for anti-CHIKV activity.
To confirm the compound activity against dengue viruses, the selected hits from the primary screening were tested in a 10-pt. DRC (2-fold serial dilution from 50 µM) using the same assay described for the dengue HT/HCA. Each concentration of the hit compounds was tested in duplicate wells. Data generated from image analysis of the 10-pt. DRC was plotted and analyzed using the non-linear regression formula: log (inhibitor) vs. response – […] (4 parameters) in GraphPad Prism 5.04. […] Compound toxicity was determined by testing the hit compounds in a 10-pt. DRC against Huh-7.5 in the absence of viral infection and measuring the cell viability using resazurin reduction assay as described above. […] Confirmed hits were selected based on their Selectivity Index (SI), a dimensionless value that indicates the magnitude between cytotoxic concentration and effective concentration, and is calculated as: SI = CC50/EC50.
For orientation: Alamar Blue is a resazurin reagent that responds to reducing activity.

Series [6] has as its system DENV1, DENV2, DENV3 and DENV4 in Huh-7.5. Kind of series: plaque reduction assay. The note with it: 25 µM, Huh-7.5, 30 pfu per well, 7 days. The class given is cell-based, Dengue virus. As to the method:
Figure 5 Plaque reduction assay. Huh-7.5 cells grown in 24-well tissue culture plate were inoculated with 30 pfu DENV1, DENV2, DENV3 and DENV4 per well and incubated for 7 days in the presence of compound CND1203 at various concentrations. MOCK-infected wells were inoculated with VM only.

Series [7] relates to dengue virus infection (M.O.I. 5) in Huh-7.5. Put plainly: time-of-addition assay. The series is classed as cell-based. The settings on record: 25 µM added at −2, 0, 0.5, 1, 2, 4 hpi, M.O.I. 5, data not shown. The method, then:
Time-of-addition assay, a strategy to determine the stage of inhibition during the viral infection cycle, has been used to characterize the mode of action of some inhibitors of dengue viral entry (NITD Compound 6), viral replication (NITD-982) and early translation (NITD-2636), [47], [53]. The inhibitor is added at different time points during viral infection and monitored for expression of the viral proteins, replication of the genome or production of infectious progeny virions. […] Compound CND1203 was used for the time-of-addition assay, adding 25 µM at different time points (−2 hpi, 0 hpi, 0.5 hpi, 1 hpi, 2 hpi, 4 hpi) of the dengue virus infection (M.O.I. 5) in Huh-7.5. […] Aminothiazole-based compounds have previously been implicated in the inhibition of HCV replication by binding to an allosteric site on the viral polymerase. However, the structure of these active anti-HCV compounds differ from the 2-aminothiazole hit compounds reported in this study in terms of the substitutions on the scaffold. As a consequence, it is unlikely that our hit compounds interact with the viral polymerase.

In series [8] the test system is DENV1, DENV2, DENV3 and DENV4 infection in Huh-7.5. Kind of series: image-based dengue HT/HCA, all four serotypes (primary screening and overall activity). The series is classed as cell-based, Dengue virus. The method, then:
as §1
Acquired images were analyzed using our in-house developed image-mining platform (IM). This platform is designed to do high-content screening and directly access the database of images that were sequentially analyzed with specially designed algorithms developed as a customized plug-in to the IM platform. The results of all the analyses were stored in a centralized database. […]
The BioFocus kinase inhibitor library were screened against DENV1, DEN2, DENV3 and DENV4 at 10 µM in 0.5% (v/v) DMSO. […] Compound activity based on percent inhibition and cell toxicity was assessed by IFA and IM analysis as described above. […]
as §4

Results on one molecule are retold here after article PMC3578765 (PLoS Neglected Tropical Diseases, 2013).

“Also recorded” adds a separate entry of the source.

In general, EC50 refers to the concentration needed to bring the measured effect to its halfway point. As usually defined, the CC50 is the concentration that lowers cell viability or growth by half. Read a low CC50 as greater toxicity to the cells. For `NC(c1csc(Nc2ncccn2)n1)c1ccccc1Cl` (centres unmarked) [CND1203], the concentration giving a half-maximal response (EC50) was determined as 1.7 µM in series [1], 4.1 µM in series [2], 2.3 µM in series [3] and 5 µM in series [4]. Also, in series [5], the CC50 at 72 h was greater than 100 µM. The “formation of dengue virus plaques” value in series [6] was “blocked the formation of dengue virus plaques”. Also, in series [7], the “inhibition of dengue infection in time-of-addition assay” value is recorded as “none of the treatments inhibited dengue infection”. In addition, the “antiviral activity against all four dengue serotypes” value in series [8] is “strong antiviral activities against all four dengue serotypes; also recorded: strong antiviral activity against all 4 dengue serotypes”.
